According to article PMC6934184, “Selective DNA-PKcs inhibition extends the therapeutic index of localized radiotherapy and chemotherapy” (The Journal of Clinical Investigation, 2019):

Target: T1, MAPK13 (p38 delta) (Homo sapiens, UniProt O15264)
T1 construct: purchased Thermo Fisher Scientific (Life Technologies) SelectScreen
Experiment: SelectScreen Z'LYTE
Type: biochemical
In short: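 SelectScreen broad panel; activity (Z'LYTE, Adapta) plus binding formats. ATP: Km app for CSF1R Z'LYTE; 10 for CAMK1 Adapta. Readout = % per kinase.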

T1 sequence (O15264 whole entry): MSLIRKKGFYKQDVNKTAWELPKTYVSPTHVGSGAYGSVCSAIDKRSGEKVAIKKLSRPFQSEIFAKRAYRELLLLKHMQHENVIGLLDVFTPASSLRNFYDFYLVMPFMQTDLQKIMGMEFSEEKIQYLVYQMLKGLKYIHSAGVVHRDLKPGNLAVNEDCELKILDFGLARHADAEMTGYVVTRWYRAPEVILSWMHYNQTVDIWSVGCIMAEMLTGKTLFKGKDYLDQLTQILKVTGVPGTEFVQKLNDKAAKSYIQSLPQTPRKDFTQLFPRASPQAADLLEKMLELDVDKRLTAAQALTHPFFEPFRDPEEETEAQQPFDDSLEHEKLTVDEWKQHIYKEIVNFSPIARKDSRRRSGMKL

Q: With `CN(C(=O)CN1CCOCC1)c1ccc2sc3c(-c4cccc5c(=O)cc(N6CC7CCC(C6)O7)oc45)cccc3c2c1` [NU5455] as the compound, how does the inhibition at 1 µM read?
A: The inhibition at 1 µM was 5.8%.
